Test results from publication PMC8465649, “Semaphorin 3A—Glycosaminoglycans Interaction as Therapeutic Target for Axonal Regeneration” (Pharmaceuticals, 2021).

How the values were obtained:
[1] = Potentiometric titration (protonation state); type: physicochemical; settings: 25 °C, 0.15 M NaCl
Procedure: UV absorbance was measured using a SpectraMax M5 spectrophotometer (Molecular Devices, Sunnyvale, CA, USA). The experiments were performed with a 10 μM methylene blue (MB) solution in 5 mM Tris-HCl buffer at pH 7.5, to which increasing amounts of heparin were added to saturation of the MB dye. For the competition assays, solutions of MB and heparin at fixed concentrations were titrated with increasing amounts of SICHI or CSIC02–04 peptoids. Then, the relative increase in absorbance at 665 nm, due to release of MB from the MB–heparin complex when adding either SICHI or CSIC02–04 to the cuvette, can be plotted vs. the charge ratio considering their respective concentrations and that all the peptoids have three positive charges, and heparin has four negative charges per disaccharide unit. With this information, the charge excess for 50% of displacement of the MB dye (CE50) for each compound can be calculated for comparison. Potentiometric titrations were carried out in a reaction vessel thermostated with a water bath at 25.0 ± 0.1 °C under nitrogen atmosphere, and 0.15 M NaCl was used as the supporting electrolyte. The titrant was delivered by a precision microburette. The potentiometric measurements were made with a pH-mV meter. The reference electrode was an Ag/AgCl electrode in saturated KCl solution. The acquisition of the emf data was performed with the computer program Tiamo 2.3.1. […]

[2] = WaterLOGSY NMR direct binding to heparin agarose; settings: 1D 1H WaterLOGSY
Procedure: Figure 6 (a) Chemical structures of triprotonated SICHI and CSIC02–04, as the main species in aqueous medium at neutral pH, and relative increase in MB absorbance at 665 nm versus charge ratio after the addition of the peptoids to the preformed MB/heparin complex (4.71 µM Hep repeating units + 9.83 µM MB in 5 mM Tris buffer at pH = 7.5). (b) 1D ^1H WaterLOGSY NMR experiments showing that CSIC02 binds to heparin agarose resin (used as a GAG mimetic).
As a simple way to characterize the GAG binding behavior, we applied the method previously described by Jiao et al., using the cationic dye known as methylene blue (MB) in a colorimetric competition assay. […] Next, we assessed the integrity and solubility of CSIC02 by NMR. […] Direct binding of CSIC02 to GAGs was qualitatively assessed by specific NMR experiments.
Next, 1D ^1H T1ρ relaxation filtered and WaterLOGSY NMR experiments were acquired at 25 °C on a 500-MHz spectrometer (Varian Inova; Agilent Technologies, Santa Clara, CA, USA) equipped with an AutoX inverse double-resonance probe with a z-shielded pulsed-field gradient coil. […] The experiments were recorded using the standard pulse sequence in the (WLOGSY_ES) Chempack library, with excitation sculpting to suppress water resonances. […]

[3] = 1D 1H NMR titration with chondroitin sulfate; type: binding; settings: increasing amounts of CS, pH 7.5
Source text: As a simple way to characterize the GAG binding behavior, we applied the method previously described by Jiao et al., using the cationic dye known as methylene blue (MB) in a colorimetric competition assay. To compare with our previous results for SICHI, we performed similar experimental design and data analysis, using the charge excess at 50% of MB displacement (CE50) as the parameter to compare the respective binding abilities. The four peptoids rendered very similar CE50 values (CE50 = 1.5–1.8, Figure 6a), reflecting the equivalent charge states. However, CSIC02 reached saturation (complete MB displacement) with a lower number of equivalents, which can be due to its slightly larger molecular size that may cause a more efficient interference with MB binding. Next, we assessed the integrity and solubility of CSIC02 by NMR. To characterize its tendency to aggregate in aqueous solution, NMR spectra at increasing concentrations were acquired which show the same sharp signals under all conditions (Figure S13). […] Direct binding of CSIC02 to GAGs was qualitatively assessed by specific NMR experiments.
Figure S14. CSIC02 spectra with increasing amount of Chondroitin sulfate from shark
cartilage (0,5, 1,0. 1,5, 2,0. 2,5 and 3,0 mg). Spectra were acquired in 10 mM Tris-HCl/150
(1 picture or pasted object on this page, not shown here)

**Q.** Which results are given for `CCN(CC)CCN(CC(=O)N(CCN1CCCC1)CC(=O)N(CCC1CCCN1C)CC(N)=O)C(=O)OCc1ccccc1` (stereo not drawn) [CSIC02]?
**A.** protonation state at neutral pH [1]: triprotonated; binding to heparin agarose (qualitative) [2]: binding; binding to chondroitin sulfate (qualitative) [3]: progressive shifting of CSIC02 resonances
